# Assay results reported in patent EP3570868B1, “[…] ANTIMICROBIAL PEPTIDES AND THEIR APPLICATIONS FOR THE TREATMENT AND PREVENTION OF MUSCU[…]” (Ustav Organicke Chemie a Biochemie AV CR, v.v.i., priority 2017, dated 2018).
# Experiments:
# [1] = test system: Candida albicans ATCC MYA-2876; assay: Biofilm formation on the surface of a bone cement implant in femur heads; assay type: cell-based; conditions: two days, cement without peptide 4.4x10^5
# Protocol: The resulting elastic paste is placed into a 2 ml plastic syringe (without needle) and pressed into the infected holes in the spongy part of the bone, where it polymerizes and hardens. For comparison, other similarly infected holes are filled with cement containing only an antibiotic or antimycotic agent. […] The mixture in an amount of 125 mg is mixed with liquid monomer (50-60 µl) and then pressed into the openings as described above. In another embodiment, the cements are applied to uninfected holes, allowed to harden, and then microbes are pipetted into the hole excavated between implants. From there they penetrate through bone tissue and settle on the implants with consequent formation of biofilms.
# After two days, implants are removed with metal spikes and tweezers, mechanically cleaned from debris of bone tissue, and washed four times with physiological saline (0.5 ml) in plastic tubes to remove any residual planktonic microbes or bone cells from their surface. The implants in closed tubes with 0.4 ml saline are then sonicated four times for 3 min with occasional shaking. The of microbial biofilm on the surface of the implant is thus disrupted and microbes are loosed into the physiological saline. The resulting suspension is subsequently diluted using the tenfold serial dilution for culturing on agar. […]
# [2] = test system: Candida albicans yeast (clinical isolate Olomouc); assay: Comparison of two similar halictin peptides for biofilm formation on the implant surface (yeast pipetted into a hole between implants); assay type: cell-based; conditions: 3.5 mg peptide in 100 mg powder cement component; two days; implant without peptide 1.8 × 10^3
# Protocol: The experiment was performed under similar conditions as described in Example 5. Here, 100 mg of the powder cement component was used to prepare a paste, which was mixed with in 3.5 mg of peptide XIII and subsequently 52 µl of liquid component. The resulting paste was thoroughly mixed and then pressed into a hole prepared in the spongy part of the bone. To a next hole in the spongy part of the same bone a paste was pressed, containing comparative peptide Hal 2/4 (3.5 mg) with the sequence H-[…]NH2, which was also prepared from 100 mg of the powder component and 52 µl of the liquid component. The third hole was filled with paste without peptide prepared from the same amount of components. The Candida albicans yeast (clinical isolate Olomouc), grown in YPG, was pipetted in the hole excavated between implants equidistant (approximately 1 cm) from each. From there, the yeast penetrated through the bone tissue and was deposited on the implant with consequent formation of biofilms.
# Then the implants in closed tubes with 0.4 ml of saline were treated ultrasonically four times for three minutes with occasional shaking. This way, microbial biofilm on the surface of the implant was disrupted and microbes loosed into the physiological saline. The resulting suspension was then diluted in a decimal dilution series for culturing on agar. […]
# [3] = test system: S.e. (clin. isolate Motol); assay type: cell-based, Staphylococcus epidermidis; conditions: 37° C for 20 h
# Procedure, shortened: (§1)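 MIC, quantitative, from growth curves (A540 every 15 min, 20 h, 37 °C, continuous shaking). Inoculum ~10^5 CFU/well; peptide final 0.5–100 µmol.l^-1 in LB; E. faecalis pregrown in BHI, rest in LB. Tetracycline standard over same range.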
# [4] = test system: Candida albicans (clin. isolate Olomouc); assay: Biofilm formation on the surface of a bone cement implant in femur heads; assay type: cell-based; conditions: two days, cement without peptide 8.0x10^4
# Protocol: (§3) The resulting elastic paste is placed into a 2 ml plastic syringe (without needle) and pressed into the infected holes in the spongy part of the bone, where it polymerizes and hardens. For comparison, other similarly infected holes are filled with cement containing only an antibiotic or antimycotic agent. For comparison, a Vancogenx® cement (Tecresa S. p. A., Italy) is used, made from a mixture of a powdered polymer component containing vancomycin and gentamicin. The mixture in an amount of 125 mg is mixed with liquid monomer (50-60 µl) and then pressed into the openings as described above. In another embodiment, the cements are applied to uninfected holes, allowed to harden, and then microbes are pipetted into the hole excavated between implants. From there they penetrate through bone tissue and settle on the implants with consequent formation of biofilms.
# After two days, implants are removed with metal spikes and tweezers, mechanically cleaned from debris of bone tissue, and washed four times with physiological saline (0.5 ml) in plastic tubes to remove any residual planktonic microbes or bone cells from their surface. The implants in closed tubes with 0.4 ml saline are then sonicated four times for 3 min with occasional shaking. The of microbial biofilm on the surface of the implant is thus disrupted and microbes are loosed into the physiological saline. The resulting suspension is subsequently diluted using the tenfold serial dilution for culturing on agar.
# Evaluation of the effect of antimicrobial peptides on the formation of microbial biofilm on the surface of the implant made of the bone cement.
# [5] = test system: Candida glabrata DSY565; assay: as above; assay type: cell-based; conditions: two days, cement without peptide 1.3x10^6
# Protocol: as §3
# After two days, implants are removed with metal spikes and tweezers, mechanically cleaned from debris of bone tissue, and washed four times with physiological saline (0.5 ml) in plastic tubes to remove any residual planktonic microbes or bone cells from their surface. The implants in closed tubes with 0.4 ml saline are then sonicated four times for 3 min with occasional shaking. The of microbial biofilm on the surface of the implant is thus disrupted and microbes are loosed into the physiological saline. […]
# [6] = test system: P.a. 5482; assay type: cell-based, Pseudomonas aeruginosa; conditions: 37° C for 20 h
# Procedure, shortened: as §1
# [7] = test system: P.a. (clin. isolate Liberec); assay type: cell-based, Pseudomonas aeruginosa; conditions: 37° C for 20 h
# Procedure, shortened: (§2)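 Bacteria are grown to exponential phase, diluted and mixed with peptide solutions in LB so that wells hold 0.5–100 µmol.l^-1 peptide and about 10^5 CFU. Incubation runs 20 h at 37 °C under shaking, with absorbance at 540 nm followed throughout to give the MIC.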
# [8] = test system: Candida albicans; assay type: cell-based; conditions: C.a.; 37° C for 20 h
# [9] = test system: Escherichia coli; assay type: cell-based; conditions: E.c.; 37° C for 20 h
# Procedure, shortened: as §2
# [10] = test system: Bacillus subtilis; assay type: cell-based; conditions: B.s.; 37° C for 20 h
# Procedure, shortened: as §2
# [11] = test system: E.f. (clin. isolate Motol); assay type: cell-based, Enterococcus faecalis; conditions: 37° C for 20 h
# Procedure, shortened: as §1
# [12] = test system: human red blood cells; assay: Determination of haemolytic activity; assay type: cell-based; conditions: human red blood cells (5% v/v), 1 h at 37 °C; concentration for lysis of 50% of erythrocytes
# Procedure, shortened: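 Peptides at 2-400 µmol.1^-1 were incubated with 5% v/v human erythrocytes in physiological solution for 1 h at 37 °C; haemoglobin release measured as supernatant absorbance at 540 nm after centrifugation, with 0.2% Triton X-100 as 100% lysis. Reported as LC50, the concentration lysing 50% of cells.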
# [13] = test system: MRSA (clin. isolate Motol); assay type: cell-based, Staphylococcus aureus; conditions: 37° C for 20 h
# Procedure, shortened: as §1
# [14] = test system: MRSA 6271; assay type: cell-based, Staphylococcus aureus; conditions: 37° C for 20 h
# Procedure, shortened: as §1
# [15] = test system: MRSA (clin. isolate Liberec); assay type: cell-based, Staphylococcus aureus; conditions: 37° C for 20 h
# Procedure, shortened: as §2
smiles,measurement,setting,value
CC[C@H](C)[C@H](NC(=O)[C@H](CCCCN)NC(=O)[C@H](CCCCN)NC(=O)[C@@H](CC(C)C)NC(=O)[C@H](CC(C)C)NC(=O)[C@H](CCCCN)NC(=O)[C@H](CCSC)NC(=O)[C@H](Cc1c[nH]c2ccccc12)NC(=O)[C@H](CCCCN)NC(=O)CN)C(=O)N[C@@H](CC(C)C)C(=O)N[C@@H](CCCCN)C(N)=O [XIII],CFU/implant,[1],6.0x10^3 CFU/implant
same,number of colonies from the surface of the implant,[2],zero
same,Antimicrobial activity MIC,[3],"4,0 µmol.l^-1"
same,CFU/implant,[4],0 CFU/implant
same,CFU/implant,[5],2.4x10^3 CFU/implant
same,Antimicrobial activity MIC,[6],"5,0 µmol.l^-1"
same,Antimicrobial activity MIC,[7],"32,0 µmol.l^-1"
same,Antimicrobial activity MIC,[8],"8,0 µmol.l^-1"
same,Antimicrobial activity MIC,[9],"10,0 µmol.l^-1"
same,Antimicrobial activity MIC,[10],"2,8 µmol.l^-1"
same,Antimicrobial activity MIC,[11],>100 µM
same,Hemolytic activity LC50,[12],>400 µM
same,Antimicrobial activity MIC,[13],"32,0 µmol.l^-1"
same,Antimicrobial activity MIC,[14],"18,7 µmol.l^-1"
same,Antimicrobial activity MIC,[15],"13,3 µmol.l^-1"
